Reference: patent publication US20240269136A1, “EGFR INHIBITOR AND PERK ACTIVATOR IN COMBINATION THERAPY AND THEIR USE FOR TREATING CANCER” (Genentech, Inc., priority 2021, published 2024)
Like-named read-outs stand apart in the source and are kept apart here.

Tested on: PC9 cells
Assay: CellTiter-Glo Luminescent Cell Viability Assay, PC9 cells, EGFR inhibitors and PERK activators alone and in combination
Format: cell-based
Method: PC9 cells were seeded in replicates in 96-well plates and allowed to attach overnight. The following day cells were treated with the indicated compounds or compound combinations at the indicated concentrations. Cell survival was measured 72 h post-treatment using CellTiter-Glo Luminescent Cell Viability Assay (Promega, G7572). Quantification of the fold decrease in cell viability was determined for single agent activity and for combinations relative to the DMSO-treated control (as shown in Table 1A and 1B). Mean (u) and standard deviation (o) was determined for biological triplicates using Microsoft Excel.

[1] = combination: CCT-020312 2 μM + EGFRi 0.1 μM, PC9, 72 h, relative to DMSO
[2] = combination: CCT-020312 2 μM + EGFRi 1 μM, PC9, 72 h, relative to DMSO
[3] = combination: DHBDC 50 μM + EGFRi 0.1 μM, PC9, 72 h, relative to DMSO
[4] = combination: DHBDC 50 μM + EGFRi 1 μM, PC9, 72 h, relative to DMSO
[5] = combination: IPA 1 μM + EGFRi 0.1 μM, PC9, 72 h, relative to DMSO
[6] = combination: IPA 1 μM + EGFRi 1 μM, PC9, 72 h, relative to DMSO
[7] = combination: MK-28 20 μM + EGFRi 0.1 μM, PC9, 72 h, relative to DMSO
[8] = combination: MK-28 20 μM + EGFRi 1 μM, PC9, 72 h, relative to DMSO
[9] = single agent, EGFRi 0.1 μM, PC9, 72 h, relative to DMSO, mean of biological triplicates
[10] = single agent, EGFRi 1 μM, PC9, 72 h, relative to DMSO, mean of biological triplicates
[11] = combination: CCT-020312 2 μM + EGFRi 0.01 μM, PC9, 72 h, relative to DMSO
[12] = combination: DHBDC 50 μM + EGFRi 0.01 μM, PC9, 72 h, relative to DMSO
[13] = combination: IPA 1 μM + EGFRi 0.01 μM, PC9, 72 h, relative to DMSO
[14] = combination: MK-28 20 μM + EGFRi 0.01 μM, PC9, 72 h, relative to DMSO
[15] = single agent, EGFRi 0.01 μM, PC9, 72 h, relative to DMSO, mean of biological triplicates

SMILES: Cc1cc(C(=O)Nc2nc3cccc(Cl)c3n2[C@@H]2CCCCN(C(=O)/C=C/CN(C)C)C2)ccn1 (racemic) [Nazartinib, N-[7-chloro-1-[rac-(3R)-1-[rac-(E)-4-(dimethylamino)but-2-enoyl]azepan-3-yl]benzimidazol-2-yl]-2-methyl-pyridine-4-carboxamide]
- CCT-020312 + Low EGFRi, fold decrease in cell viability (μ) [1]: 255.4 fold
- CCT-020312 + High EGFRi, fold decrease in cell viability (μ) [2]: 1514.1 fold
- DHBDC + Low EGFRi, fold decrease in cell viability (μ) [3]: 25.8 fold
- DHBDC + High EGFRi, fold decrease in cell viability (μ) [4]: 53.6 fold
- IPA + Low EGFRi, fold decrease in cell viability (μ) [5]: 44.0 fold
- IPA + High EGFRi, fold decrease in cell viability (μ) [6]: 205.5 fold
- MK-28 + Low EGFRI, fold decrease in cell viability (μ) [7]: 130.5 fold
- MK-28 + High EGFRi, fold decrease in cell viability (μ) [8]: 421.8 fold
- Low EGFRi, fold decrease in cell viability (μ) [9]: 6.3 fold
- High EGFRi, fold decrease in cell viability (μ) [10]: 15.0 fold

SMILES: C=CC(=O)N[C@H]1C=C(C)c2c(-c3cnc4ccccc4c3)c3c(N)ncnc3n2C1 (racemic) [TAS-6417, N-[rac-(8S)-4-amino-6-methyl-5-(3-quinolyl)-8,9-dihydropyrimido[5,4-b]indolizin-8-yl]prop-2-enamide]
- CCT-020312 + Low EGFRi, fold decrease in cell viability (μ) [11]: 505.3 fold
- CCT-020312 + High EGFRi, fold decrease in cell viability (μ) [1]: 1235.6 fold
- DHBDC + Low EGFRi, fold decrease in cell viability (μ) [12]: 50.9 fold
- DHBDC + High EGFRi, fold decrease in cell viability (μ) [3]: 71.8 fold
- IPA + Low EGFRi, fold decrease in cell viability (μ) [13]: 72.3 fold
- IPA + High EGFRi, fold decrease in cell viability (μ) [5]: 89.5 fold
- MK-28 + Low EGFRI, fold decrease in cell viability (μ) [14]: 158.3 fold
- MK-28 + High EGFRi, fold decrease in cell viability (μ) [7]: 301.6 fold
- Low EGFRi, fold decrease in cell viability (μ) [15]: 10.5 fold
- High EGFRi, fold decrease in cell viability (μ) [9]: 13.6 fold

SMILES: COc1cc2ncnc(Nc3ccc(F)c(Cl)c3)c2cc1NC(=O)/C=C/CN1CCCCC1 [Dacomitinib, (E)-N-[4-(3-chloro-4-fluoro-anilino)-7-methoxy-quinazolin-6-yl]-4-(1-piperidyl)but-2-enamide]
- CCT-020312 + Low EGFRi, fold decrease in cell viability (μ) [11]: 731.1 fold
- CCT-020312 + High EGFRi, fold decrease in cell viability (μ) [1]: 1325.3 fold
- DHBDC + Low EGFRi, fold decrease in cell viability (μ) [12]: 66.5 fold
- DHBDC + High EGFRi, fold decrease in cell viability (μ) [3]: 85.2 fold
- IPA + Low EGFRi, fold decrease in cell viability (μ) [13]: 79.2 fold
- IPA + High EGFRi, fold decrease in cell viability (μ) [5]: 275.2 fold
- MK-28 + Low EGFRI, fold decrease in cell viability (μ) [14]: 170.8 fold
- MK-28 + High EGFRi, fold decrease in cell viability (μ) [7]: 241.8 fold
- Low EGFRi, fold decrease in cell viability (μ) [15]: 13.6 fold
- High EGFRi, fold decrease in cell viability (μ) [9]: 14.5 fold

SMILES: C=CC(=O)Nc1cc(Nc2nccc(-c3cn(C)c4ccccc34)n2)c(OC)cc1N(C)CCN(C)C [Osimertinib, N-[2-[2-(dimethylamino)ethyl-methyl-amino]-4-methoxy-5-[[4-(1-methylindol-3-yl)pyrimidin-2-yl]amino]phenyl]prop-2-enamide]
- CCT-020312 + High EGFRi, fold decrease in cell viability (μ): 836.5 fold
- CCT-020312 + Low EGFRi, fold decrease in cell viability (μ): 38.4 fold
- DHBDC + High EGFRi, fold decrease in cell viability (μ): 64.2 fold
- DHBDC + Low EGFRi, fold decrease in cell viability (μ): 13.6 fold
- High EGFRi, fold decrease in cell viability (μ): 12.6 fold
- IPA + High EGFRi, fold decrease in cell viability (μ): 67.3 fold
- IPA + Low EGFRi, fold decrease in cell viability (μ): 9.9 fold
- Low EGFRi, fold decrease in cell viability (μ): 2.1 fold
- MK-28 + High EGFRi, fold decrease in cell viability (μ): 220.3 fold
- MK-28 + Low EGFRI, fold decrease in cell viability (μ): 72.7 fold

SMILES: C=CC(=O)N1CCC(Oc2cc3c(Nc4ccc(Cl)c(Cl)c4F)ncnc3cc2OC)CC1 [Poziotinib, 1-[4-[4-(3,4-dichloro-2-fluoro-anilino)-7-methoxy-quinazolin-6-yl]oxy-1-piperidyl]prop-2-en-1-one]
- CCT-020312 + Low EGFRi, fold decrease in cell viability (μ) [11]: 716.9 fold
- CCT-020312 + High EGFRi, fold decrease in cell viability (μ) [1]: 1168.4 fold
- DHBDC + Low EGFRi, fold decrease in cell viability (μ) [12]: 74.1 fold
- DHBDC + High EGFRi, fold decrease in cell viability (μ) [3]: 88.4 fold
- IPA + Low EGFRi, fold decrease in cell viability (μ) [13]: 107.6 fold
- IPA + High EGFRi, fold decrease in cell viability (μ) [5]: 132.4 fold
- MK-28 + Low EGFRI, fold decrease in cell viability (μ) [14]: 181.5 fold
- MK-28 + High EGFRi, fold decrease in cell viability (μ) [7]: 295.2 fold
- Low EGFRi, fold decrease in cell viability (μ) [15]: 14.3 fold
- High EGFRi, fold decrease in cell viability (μ) [9]: 15.4 fold

SMILES: C=CC(=O)Nc1cccc(Nc2nc(Nc3ccc(N4CCN(C(C)=O)CC4)cc3OC)ncc2C(F)(F)F)c1 [Rociletinib, N-[3-[[2-[4-(4-acetylpiperazin-1-yl)-2-methoxy-anilino]-5-(trifluoromethyl)pyrimidin-4-yl]amino]phenyl]prop-2-enamide]
- CCT-020312 + Low EGFRi, fold decrease in cell viability (μ) [1]: 5.1 fold
- CCT-020312 + High EGFRi, fold decrease in cell viability (μ) [2]: 446.1 fold
- DHBDC + Low EGFRi, fold decrease in cell viability (μ) [3]: 5.3 fold
- DHBDC + High EGFRi, fold decrease in cell viability (μ) [4]: 88.0 fold
- IPA + Low EGFRi, fold decrease in cell viability (μ) [5]: 6.4 fold
- IPA + High EGFRi, fold decrease in cell viability (μ) [6]: 142.3 fold
- MK-28 + Low EGFRI, fold decrease in cell viability (μ) [7]: 49.2 fold
- MK-28 + High EGFRi, fold decrease in cell viability (μ) [8]: 268.9 fold
- Low EGFRi, fold decrease in cell viability (μ) [9]: 1.3 fold
- High EGFRi, fold decrease in cell viability (μ) [10]: 7.0 fold

SMILES: C=CC(=O)Nc1cccc(Oc2nc(Nc3ccc(N4CCN(C)CC4)cc3OC)ncc2Cl)c1 [WZ-4002, N-[3-[5-chloro-2-[2-methoxy-4-(4-methylpiperazin-1-yl)anilino]pyrimidin-4-yl]oxyphenyl]prop-2-enamide]
- CCT-020312 + Low EGFRi, fold decrease in cell viability (μ) [1]: 49.8 fold
- CCT-020312 + High EGFRi, fold decrease in cell viability (μ) [2]: 1482.6 fold
- DHBDC + Low EGFRi, fold decrease in cell viability (μ) [3]: 13.2 fold
- DHBDC + High EGFRi, fold decrease in cell viability (μ) [4]: 52.0 fold
- IPA + Low EGFRi, fold decrease in cell viability (μ) [5]: 10.3 fold
- IPA + High EGFRi, fold decrease in cell viability (μ) [6]: 106.0 fold
- MK-28 + Low EGFRI, fold decrease in cell viability (μ) [7]: 120.3 fold
- MK-28 + High EGFRi, fold decrease in cell viability (μ) [8]: 422.1 fold
- Low EGFRi, fold decrease in cell viability (μ) [9]: 2.6 fold
- High EGFRi, fold decrease in cell viability (μ) [10]: 13.5 fold
